From ChEMBL document CHEMBL1150469, “The conserved acid binding domain model of inhibitors of protein phosphatases 1 and 2A: Molecular modelling aspects” (Bioorg Med Chem Lett, 1993) come the findings set out here.

The species entered for test [1] is Mus musculus. The test can be described thus: Tested for inhibition of specific [3H]- okadaic acid binding to the cytosolic fraction of mouse skin. It counts as functional.
For test [2], the species on record is Mus musculus. Briefly: Tested for inhibition of specific [3H]- okadaic acid binding to the cytosolic fraction of mouse liver. In kind it is functional.
For test [3], the species on record is Mus musculus. The test can be described thus: Tested for intra peritoneal dose at which compound dose not show toxicity in mouse. It counts as functional, organism-based.
Test [4] is filed under the species Mus musculus. Briefly: Tested for inhibition of specific [3H]- okadaic acid binding to the cytosolic fraction of mouse skin. In kind it is functional.

In test [1], `C=C1C(=O)N[C@H](C)C(=O)N[C@@H](CC(C)C)C(=O)N[C@@H](C(=O)O)[C@H](C)C(=O)N[C@@H](CCCNC(=N)N)C(=O)N[C@@H](/C=C/C(C)=C/[C@H](C)[C@H](Cc2ccccc2)OC)[C@H](C)C(=O)N[C@@H](C(=O)O)CCC(=O)N1C` (stereo in doubt; form 1) gave an ED50 of 68 nM.

Turning to `COC[C@@H]([C@H](O)[C@H](O)C(=O)NCC[C@H](C)c1nc(/C=C/C[C@@H]2O[C@]3(C[C@@H](O)[C@@H]2C)O[C@H]([C@H](C[C@H](O)[C@H](C)[C@H](O)[C@H](C)/C=C(C)/C(C)=C/C=C/C(C)=C\C#N)OC)[C@H](OP(=O)(O)O)C3(C)C)co1)N(C)C` [CALYCULIN A], the ED50 in test [1] is 2.8 nM.

For the compound `C=C1C(=O)N[C@H](C)C(=O)N[C@@H](CC(C)C)C(=O)N[C@@H](C(=O)O)[C@H](C)C(=O)N[C@@H](CCCNC(=N)N)C(=O)N[C@@H](/C=C/C(C)=C/[C@H](C)[C@H](Cc2ccccc2)OC)[C@H](C)C(=O)N[C@@H](C(=O)O)CCC(=O)N1C` (stereo in doubt; form 2), the figures for the ED50 in test [1] and in test [2] were 8 nM and 1.3 nM, respectively. Besides, the DOSE in test [3] stood at 1 mg/kg.

Take `C=C1[C@@H](O)[C@@H]2O[C@]3(CC[C@H](/C=C/[C@@H](C)[C@@H]4CC(C)=C[C@@]5(O[C@H](C[C@@](C)(O)C(=O)O)CC[C@H]5O)O4)O3)CC[C@H]2O[C@@H]1[C@@H](O)C[C@H](C)[C@H]1O[C@@]2(CCCCO2)CC[C@H]1C` [OKADAIC ACID]: the ED50 is 3.2 nM in test [2] and 2.8 nM in test [4].
